Columns and labels:
MLL-AF9 cells = experiment: Viability of MLL-AF9 cells exposed to CBX for 16 hours (7AAD FACS); assay type: cell-based, mouse; design: MLL-AF9 cell death: dose or concentration left out as unconfirmed
Description: Cells were distinguished by Cd45.1/CD45.2 expression and cell viability was determined by % of 7AAD-negative cells, in FACS analysis. (*p<0.01).
We then asked how blockage of gap junction intercellular communication affects AML cells, without additional treatment. […] In order to exclude the possibility of clone specific effects, we have repeated the experiments with a different MLL-AF9 clone, generated independently, and also included HoxA9/Meis1 AML cells that represent a different type of AML.

[1] = system: MLL-AF9 cells (murine leukemic cancer stem cells); experiment: Colony formation assay (CFU-C) on MLL-AF9 cells; assay type: cell-based, mouse
primary MLL-AF9 cells = experiment: Differentiation assay, Gr-1 and Mac-1 expression in primary MLL-AF9 cells; assay type: cell-based, mouse; design: dose or concentration left out as unconfirmed; conditions: CBX for 16 hours; for differentiation of MLL-AF9 cells: Gr-1/Mac-1 expression
Description: Cell viability was determined by % of 7AAD-negative cells, in FACS analysis. (*p<0.01).
MLL-AF9 AML cells are undifferentiated myeloid progenitors that express both Gr-1 and Mac-1 antigens, whereas mature myeloid cells express either Gr-1 (granulocytes) or Mac-1 (macrophages).

[2] = system: freshly isolated primary human leukocytes; experiment: Neutrophil differentiation (CD66b+/CD14-) by FACS in primary human leukocytes; assay type: cell-based; conditions: 16 hours
[3] = system: human leukemic cancer stem and progenitor cells (THP1, HL60, U937); experiment: Colony formation assay (CFU-C) on human leukemic cell lines; assay type: cell-based
[4] = system: freshly isolated primary non-leukemic normal human leukocytes; experiment: Colony formation assay (CFU-C) on normal human leukocytes; assay type: cell-based
MLL-AF9 leukemic cells = experiment: Apoptosis of MLL-AF9 leukemic cells (7AAD-negative, annexin-V positive); assay type: cell-based, mouse; design: apoptosis of leukemic cells, kinetics: dose or concentration left out as unconfirmed
Description: Rate of proliferation for cell populations used is as follows: MLL-AF9: 3 divisions/24 hours; myeloblasts: 3 divisions/24 hours, eLKS: 7 divisions/24 hours.
The informational material can include instructions to administer the gap junction blocker and/or agents described herein in a suitable manner, e.g., in a suitable dose, dosage form, or mode of administration. […] The informational material can include instructions for selecting a suitable subject, e.g., a human, e.g., a human suffering from relapsed or refractory acute myeloid leukemia. The informational material of the kits is not limited in its form. In many cases, the informational material, e.g., instructions, is provided in printed matter, e.g., a printed text, drawing, and/or photograph, e.g., a label or printed sheet. However, the informational material can also be provided in other formats, such as Braille, computer readable material, video recording, or audio recording. In another embodiment, the informational material of the kit is a link or contact information, e.g., a physical address, email address, hyperlink, website, or telephone number, where a user of the kit can obtain substantive information about the modulator and/or its use in the methods described herein. Of course, the informational material can also be provided in any combination of formats.

[5] = system: normal bone marrow mononuclear cells (BM-MNC); experiment: Normal bone marrow mononuclear cells in 1:1 mixture with MLL-AF9 cells after CBX; assay type: cell-based, mouse; conditions: CBX vs PBS

## CC1(C)[C@@H](OC(=O)CCC(=O)O)CC[C@]2(C)[C@H]3C(=O)C=C4[C@@H]5C[C@@](C)(C(=O)O)CC[C@]5(C)CC[C@@]4(C)[C@]3(C)CC[C@@H]12 [CBX, Carbenoxolone]
MLL-AF9 cells; 1001 μM CBX for 16 hours, CBX alone
  cells eradicated: ~20%
MLL-AF9 cells; CBX at greater than or equal to 100 μM, 16 hours
  eradication of MLL-AF9 leukemia: eradication of MLL-AF9 leukemia
MLL-AF9 cells; CBX, 16 hours
  MLL-AF9 cell death: ~70%
MLL-AF9 cells; increasing CBX up to 400 μM, 16 hours
  eradication of MLL-AF9 cells in 1:1 mixture with normal BM leukocytes: selectively eradicates
[1]; CBX at greater than or equal to 50 μM
  effect on malignant vs. normal immature stem and progenitor cells (CFU-C): differential effect
[1]; increasing concentrations of carbenoxolone
  effect on murine leukemic cancer stem cells (CFU-C): eradicates murine leukemic cancer stem cells
Primary MLL-AF9 cells
  toxicity to MLL-AF9 cells: not toxic to the cells
  differentiation of MLL-AF9 cells: induces their differentiation into mature granulocytes
Primary MLL-AF9 cells; listed as carbenoxolone
  differentiation of MLL-AF9 cells: promotes differentiation of AML cells into short-lived granulocytes
[2]
  neutrophil differentiation (CD66b+/CD14−): does not induce neutrophil differentiation
[3]; CBX 100 μM
  effect on human leukemic progenitors (CFU-C): eradicates human leukemic progenitors
[3]; increasing concentrations
  effect on human leukemic cancer stem and progenitor cells (CFU-C): eradicates human leukemic cancer stem and progenitor cells
[4]; CBX 100 μM
  effect on normal progenitors (CFU-C): induces proliferation of normal progenitors
[4]; increasing concentrations
  effect on normal human stem and progenitor cells (CFU-C): inducing proliferation of normal human stem and progenitor cells
MLL-AF9 leukemic cells; 6, 12 and 20 hours
  apoptosis of MLL-AF9 leukemic cells: rapidly induces apoptosis
MLL-AF9 leukemic cells; 4 h, 1:1 mixture with highly proliferating normal myeloblasts or expanded LKS cells
  cell cycle dependence of CBX-induced leukemia apoptosis: not cell cycle dependent
MLL-AF9 leukemic cells; CBX vs PBS control, 4h
  apoptosis of leukemic cells in 1:1 mixture with BM-MNC: induces apoptosis of leukemic cells
MLL-AF9 leukemic cells; exposure of about […] μM
  apoptosis of leukemic cells, kinetics: selective apoptosis within hours
[5]
  replenishment of normal healthy cells: enhances the replenishment of normal healthy cells
